Results on 21 compounds are retold here after ChEMBL document CHEMBL3217451, “Structure-based optimization of the piperazino-containing 1,3-disubstituted ureas affording sub-nanomolar inhibitors of soluble epoxide hydrolase” (Medchemcomm, 2012).

≈ marks a conversion by molar mass, not a printed value.

Data set [1] in a line: Solubility of the compound in sodium phosphate buffer at pH 7.4 at 25 +/- 1 degC. It counts as physicochemical.
The target in data set [2] is T1, Bifunctional epoxide hydrolase 2 (Homo sapiens, UniProt P34913).
T1 sequence (P34913 whole entry): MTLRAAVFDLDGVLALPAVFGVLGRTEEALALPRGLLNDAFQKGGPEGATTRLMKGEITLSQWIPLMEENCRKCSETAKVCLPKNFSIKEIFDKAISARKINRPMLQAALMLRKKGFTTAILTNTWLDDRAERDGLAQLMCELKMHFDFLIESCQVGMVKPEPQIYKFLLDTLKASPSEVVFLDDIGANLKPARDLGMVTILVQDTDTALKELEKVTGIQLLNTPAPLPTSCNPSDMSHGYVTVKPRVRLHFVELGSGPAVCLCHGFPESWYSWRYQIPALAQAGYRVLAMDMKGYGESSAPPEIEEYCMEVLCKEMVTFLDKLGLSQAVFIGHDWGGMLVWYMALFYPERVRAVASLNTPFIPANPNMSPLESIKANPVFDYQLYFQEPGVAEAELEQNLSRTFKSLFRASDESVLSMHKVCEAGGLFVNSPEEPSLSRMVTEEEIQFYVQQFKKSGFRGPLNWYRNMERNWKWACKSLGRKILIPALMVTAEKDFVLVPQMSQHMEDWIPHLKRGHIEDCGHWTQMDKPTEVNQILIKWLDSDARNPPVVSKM
The experiment in a line: Inhibition of human recombinant soluble epoxide hydrolase using cyano(6-methoxy-naphthalen-2-yl)methyl-trans-[(3-phenyloxiran-2-yl)methyl]carbonate as substrate after 5 mins by fluorescence assay.

Data set [3] concerns the target T1, Bifunctional epoxide hydrolase 2. The experiment in a line: Inhibition of soluble epoxide hydrolase (unknown origin).

As for `O=C(Nc1cccc(C(=O)N2CCNCC2)c1)NC12CC3CC(CC(C3)C1)C2`, the solubility (usually the concentration that dissolves in the medium under given conditions) in data set [1] worked out at 1150 µg/mL (≈ 3010 µM). Moreover, the IC50 (as a rule, the concentration at which inhibition is half-maximal) in data set [2] was 133 nM.
In turn, `CC(C)(C)OC(=O)N1CCN(C(=O)c2cccc(NC(=O)NC34CC5CC(CC(C5)C3)C4)c2)CC1` came in with a solubility in data set [1] of 210 µg/mL (≈ 435 µM). Besides, the IC50 in data set [2] was 7.3 nM.
For `CC(=O)N1CCN(CCCOc2ccc(NC(=O)NC34CC5CC(CC(C5)C3)C4)c3cccnc23)CC1` the same measures were 130 µg/mL (≈ 257 µM) and 142 nM.
As to `O=C(NCC[C@H]1CN[C@@H](Cc2ccccc2)CN1)NC12CC3CC(CC(C3)C1)C2`, in data set [3], 1370 nM corresponded to half-maximal inhibition (IC50).
Compound `O=C(NC1CCN(C(=O)CCC(=O)N2CCNCC2)CC1)NC12CC3CC(CC(C3)C1)C2` showed a solubility in data set [1] of 8000 µg/mL (≈ 18000 µM). The IC50 in data set [2] amounted to 77.3 nM.
Take `CC(=O)N1CCN(C(=O)c2cccc(NC(=O)NC34CC5CC(CC(C5)C3)C4)c2)CC1`: in data set [1], the solubility came to 890 µg/mL (≈ 2100 µM). In addition, the IC50 in data set [2] is 46.3 nM.
`CC(=O)N1CCN(C(=O)CCC(=O)N2CCC(NC(=O)NC34CC5CC(CC(C5)C3)C4)CC2)CC1`: in data set [2], the IC50 turned out to be 44.7 nM.
Turning to `CC(C)(C)OC(=O)N1CCN(C(=O)c2ccc(NC(=O)NC34CC5CC(CC(C5)C3)C4)cc2)CC1`, the solubility in data set [1] was 500 µg/mL (≈ 1040 µM). The IC50 in data set [2] came to 0.5 nM.
For `CC(C)(C)OC(=O)N1CCN(C(=O)CCC(=O)N2CCC(NC(=O)NC34CC5CC(CC(C5)C3)C4)CC2)CC1` the same measures were 470 µg/mL (≈ 861 µM) and 18.8 nM.
On to `O=C(NC12CC3CC(CC(C3)C1)C2)N1CCNCC1`, for which, in data set [2], the concentration for half-maximal inhibition (IC50) amounted to 100000 nM.
Take `CC(C)(C)OC(=O)N1CCN(C(=O)NC23CC4CC(CC(C4)C2)C3)CC1`: in data set [2], the concentration for half-maximal inhibition (IC50) amounted to 490 nM.
In the case of `CS(=O)(=O)N1CCN(CCCCOc2cccc(NC(=O)CC34CC5CC(CC(C5)C3)C4)c2)CC1`, in data set [1], the solubility came out at 170 µg/mL (≈ 337 µM). In data set [2], the IC50 is 0.5 nM.
For `CS(=O)(=O)N1CCN(C(=O)c2cccc(NC(=O)NC34CC5CC(CC(C5)C3)C4)c2)CC1` the same measures were 130 µg/mL (≈ 282 µM) and 41.8 nM.
Consider `CN1CCN(C(=O)NC23CC4CC(CC(C4)C2)C3)CC1`, for which the IC50 in data set [2] amounted to 63.7 nM.
As to `CC(=O)N1CCN(CCCCOc2cccc(NC(=O)CC34CC5CC(CC(C5)C3)C4)c2)CC1`, the solubility in data set [1] was found to be 160 µg/mL (≈ 342 µM). For the same compound, the IC50 in data set [2] was determined as 0.6 nM.
For `CC(=O)N1CCN(C(=O)NC23CC4CC(CC(C4)C2)C3)CC1`, the IC50 in data set [2] was determined as 321 nM.
As for `CC(C)(C)OC(=O)N1CCN(CCCCOc2cccc(NC(=O)CC34CC5CC(CC(C5)C3)C4)c2)CC1`, in data set [1], the solubility stood at 180 µg/mL (≈ 342 µM). Moreover, in data set [2], the IC50 amounted to 0.4 nM.
In turn, `CS(=O)(=O)N1CCN(C(=O)c2ccc(NC(=O)NC34CC5CC(CC(C5)C3)C4)cc2)CC1` displayed a solubility in data set [1] of 860 µg/mL (≈ 1870 µM). For the same compound, the IC50 in data set [2] was found to be 1 nM.
For `CC(=O)N1CCN(C(=O)c2ccc(NC(=O)NC34CC5CC(CC(C5)C3)C4)cc2)CC1` the same measures were 530 µg/mL (≈ 1250 µM) and 9 nM.
For `O=C(Nc1ccc(C(=O)N2CCNCC2)cc1)NC12CC3CC(CC(C3)C1)C2` the same measures were 1960 µg/mL (≈ 5120 µM) and 67.1 nM.
On the same counts, the results for `CC(C)(C)OC(=O)N1CCN(CCCOc2ccc(NC(=O)NC34CC5CC(CC(C5)C3)C4)c3cccnc23)CC1` are 150 µg/mL (≈ 266 µM) and 6.8 nM.
